Assay results published in ChEMBL document CHEMBL3991601, “The target landscape of clinical kinase drugs” (Science, 2017).
Activity calls are given as the source filed them. Cut-off read from the data, not from the text of the source, for most assays here: actives have a measured Kd and inactives only a lower limit.

What was measured:
[1] = target: Dual specificity protein kinase CLK2 (Homo sapiens, UniProt P49760)
[2] = target: T1, Cyclin-G-associated kinase (Homo sapiens, UniProt O14976)
T1 sequence (O14976 whole entry): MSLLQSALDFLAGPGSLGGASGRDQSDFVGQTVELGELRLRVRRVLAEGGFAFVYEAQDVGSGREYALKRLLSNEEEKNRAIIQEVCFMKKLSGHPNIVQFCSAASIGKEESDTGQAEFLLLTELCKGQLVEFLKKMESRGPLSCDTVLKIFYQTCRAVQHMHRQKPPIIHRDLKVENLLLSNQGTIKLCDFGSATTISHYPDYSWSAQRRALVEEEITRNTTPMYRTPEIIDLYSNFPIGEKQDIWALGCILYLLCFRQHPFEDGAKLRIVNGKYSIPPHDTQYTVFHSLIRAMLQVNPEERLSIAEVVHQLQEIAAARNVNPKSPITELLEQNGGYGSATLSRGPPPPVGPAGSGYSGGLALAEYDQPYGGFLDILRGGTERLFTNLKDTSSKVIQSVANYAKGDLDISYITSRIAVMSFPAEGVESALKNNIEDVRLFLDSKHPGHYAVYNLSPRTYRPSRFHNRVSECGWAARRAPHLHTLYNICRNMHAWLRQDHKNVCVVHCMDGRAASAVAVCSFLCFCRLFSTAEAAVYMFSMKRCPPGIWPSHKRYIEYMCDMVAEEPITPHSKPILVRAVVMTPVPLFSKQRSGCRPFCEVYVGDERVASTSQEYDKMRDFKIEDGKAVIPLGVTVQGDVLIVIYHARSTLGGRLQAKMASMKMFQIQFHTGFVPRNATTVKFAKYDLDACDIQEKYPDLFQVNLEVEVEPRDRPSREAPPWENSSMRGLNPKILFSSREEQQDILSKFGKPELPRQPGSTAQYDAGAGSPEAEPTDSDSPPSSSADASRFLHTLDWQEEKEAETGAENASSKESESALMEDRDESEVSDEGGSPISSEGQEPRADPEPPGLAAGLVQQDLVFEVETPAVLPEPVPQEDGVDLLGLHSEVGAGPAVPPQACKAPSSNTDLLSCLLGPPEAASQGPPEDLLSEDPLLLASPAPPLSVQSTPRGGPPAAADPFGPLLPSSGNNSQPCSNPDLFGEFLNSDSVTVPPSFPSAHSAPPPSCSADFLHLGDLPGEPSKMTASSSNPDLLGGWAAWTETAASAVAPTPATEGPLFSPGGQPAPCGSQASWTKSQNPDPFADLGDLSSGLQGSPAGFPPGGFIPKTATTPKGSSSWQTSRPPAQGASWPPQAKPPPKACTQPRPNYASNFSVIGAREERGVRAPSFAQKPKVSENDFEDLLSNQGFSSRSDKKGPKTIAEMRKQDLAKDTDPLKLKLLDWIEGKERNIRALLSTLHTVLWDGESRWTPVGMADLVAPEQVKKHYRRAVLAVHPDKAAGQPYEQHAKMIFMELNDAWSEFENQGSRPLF

[3] = target: T2, ATP-dependent 6-phosphofructokinase, platelet type (Homo sapiens, UniProt Q01813)
T2 sequence (Q01813 whole entry): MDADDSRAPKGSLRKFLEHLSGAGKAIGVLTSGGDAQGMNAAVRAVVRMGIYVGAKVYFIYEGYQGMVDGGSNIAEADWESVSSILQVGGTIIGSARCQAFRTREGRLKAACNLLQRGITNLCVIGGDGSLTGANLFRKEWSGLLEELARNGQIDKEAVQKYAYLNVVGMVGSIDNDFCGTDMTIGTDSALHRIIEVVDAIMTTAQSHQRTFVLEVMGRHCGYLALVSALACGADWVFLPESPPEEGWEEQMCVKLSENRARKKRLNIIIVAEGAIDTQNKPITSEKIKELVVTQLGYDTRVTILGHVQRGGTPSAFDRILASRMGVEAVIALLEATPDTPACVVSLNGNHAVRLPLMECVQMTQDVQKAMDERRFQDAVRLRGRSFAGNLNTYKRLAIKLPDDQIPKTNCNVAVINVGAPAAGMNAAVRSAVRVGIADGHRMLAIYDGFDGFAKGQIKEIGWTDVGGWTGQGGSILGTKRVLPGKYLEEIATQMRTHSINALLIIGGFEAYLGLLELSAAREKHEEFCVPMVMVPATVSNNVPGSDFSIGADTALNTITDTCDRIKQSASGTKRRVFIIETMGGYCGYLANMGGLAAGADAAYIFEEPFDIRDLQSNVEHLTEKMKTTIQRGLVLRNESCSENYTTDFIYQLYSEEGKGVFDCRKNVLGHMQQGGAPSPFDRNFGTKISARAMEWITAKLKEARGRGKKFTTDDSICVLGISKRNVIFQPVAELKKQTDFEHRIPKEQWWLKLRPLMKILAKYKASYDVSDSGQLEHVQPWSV

[4] = target: T3, cGMP-dependent protein kinase 1 (Homo sapiens, UniProt Q13976)
T3 sequence (Q13976 whole entry): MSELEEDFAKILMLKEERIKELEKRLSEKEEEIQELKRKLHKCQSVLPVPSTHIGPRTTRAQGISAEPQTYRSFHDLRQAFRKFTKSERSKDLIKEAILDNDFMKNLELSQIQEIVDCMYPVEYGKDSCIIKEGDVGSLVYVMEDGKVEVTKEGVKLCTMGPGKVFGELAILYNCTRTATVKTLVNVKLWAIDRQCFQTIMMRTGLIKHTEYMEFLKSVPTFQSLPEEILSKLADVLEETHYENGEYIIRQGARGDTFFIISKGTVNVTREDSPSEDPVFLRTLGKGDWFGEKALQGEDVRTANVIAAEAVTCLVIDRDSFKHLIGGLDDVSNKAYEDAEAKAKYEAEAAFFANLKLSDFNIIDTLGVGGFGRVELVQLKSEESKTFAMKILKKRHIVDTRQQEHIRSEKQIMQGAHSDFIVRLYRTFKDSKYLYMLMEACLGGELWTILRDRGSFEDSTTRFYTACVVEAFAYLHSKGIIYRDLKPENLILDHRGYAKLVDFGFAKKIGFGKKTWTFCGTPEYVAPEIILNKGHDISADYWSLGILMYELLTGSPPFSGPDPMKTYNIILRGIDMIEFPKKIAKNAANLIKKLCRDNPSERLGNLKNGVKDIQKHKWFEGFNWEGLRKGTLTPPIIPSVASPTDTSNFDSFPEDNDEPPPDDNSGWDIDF

[5] = target: Tyrosine-protein kinase Lck (Homo sapiens, UniProt P06239)
[6] = target: Cyclin-dependent kinase 5 (Homo sapiens, UniProt Q00535)
[7] = target: Membrane-associated progesterone receptor component 1 (Homo sapiens, UniProt O00264)
[8] = target: Serine/threonine-protein kinase 10 (Homo sapiens, UniProt O94804)

Measured: Kd
Note: in the data inactive means no Kd found up to 30 µM.

Sequence of Dual specificity protein kinase CLK2 (P49760 whole entry): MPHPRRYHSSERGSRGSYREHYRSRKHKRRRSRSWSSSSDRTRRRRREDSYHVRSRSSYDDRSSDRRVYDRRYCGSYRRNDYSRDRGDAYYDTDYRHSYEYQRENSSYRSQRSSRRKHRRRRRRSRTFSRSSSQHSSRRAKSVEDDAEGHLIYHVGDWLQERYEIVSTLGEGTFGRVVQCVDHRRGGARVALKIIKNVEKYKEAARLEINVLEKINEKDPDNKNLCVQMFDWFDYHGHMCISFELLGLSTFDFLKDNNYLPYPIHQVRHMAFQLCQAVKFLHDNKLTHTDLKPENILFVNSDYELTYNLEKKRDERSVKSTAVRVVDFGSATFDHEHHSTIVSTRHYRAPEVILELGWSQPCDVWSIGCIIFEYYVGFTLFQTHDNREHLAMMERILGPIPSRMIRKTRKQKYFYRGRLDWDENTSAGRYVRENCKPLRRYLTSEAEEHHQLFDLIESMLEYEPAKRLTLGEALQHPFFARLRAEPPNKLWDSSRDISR
Sequence of Tyrosine-protein kinase Lck (P06239 whole entry): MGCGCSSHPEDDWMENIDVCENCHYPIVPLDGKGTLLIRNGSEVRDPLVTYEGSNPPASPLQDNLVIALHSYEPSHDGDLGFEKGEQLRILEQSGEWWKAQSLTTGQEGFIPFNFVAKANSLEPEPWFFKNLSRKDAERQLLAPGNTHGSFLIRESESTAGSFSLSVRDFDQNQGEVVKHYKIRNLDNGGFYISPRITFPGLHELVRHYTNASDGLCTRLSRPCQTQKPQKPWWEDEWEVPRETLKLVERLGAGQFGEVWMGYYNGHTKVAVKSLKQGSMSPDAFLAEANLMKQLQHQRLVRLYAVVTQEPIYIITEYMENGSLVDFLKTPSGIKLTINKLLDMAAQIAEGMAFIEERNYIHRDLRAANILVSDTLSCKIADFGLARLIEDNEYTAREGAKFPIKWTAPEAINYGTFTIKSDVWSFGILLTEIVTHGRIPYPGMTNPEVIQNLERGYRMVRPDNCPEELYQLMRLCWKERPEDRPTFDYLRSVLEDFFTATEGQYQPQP
Sequence of Serine/threonine-protein kinase 10 (O94804 whole entry): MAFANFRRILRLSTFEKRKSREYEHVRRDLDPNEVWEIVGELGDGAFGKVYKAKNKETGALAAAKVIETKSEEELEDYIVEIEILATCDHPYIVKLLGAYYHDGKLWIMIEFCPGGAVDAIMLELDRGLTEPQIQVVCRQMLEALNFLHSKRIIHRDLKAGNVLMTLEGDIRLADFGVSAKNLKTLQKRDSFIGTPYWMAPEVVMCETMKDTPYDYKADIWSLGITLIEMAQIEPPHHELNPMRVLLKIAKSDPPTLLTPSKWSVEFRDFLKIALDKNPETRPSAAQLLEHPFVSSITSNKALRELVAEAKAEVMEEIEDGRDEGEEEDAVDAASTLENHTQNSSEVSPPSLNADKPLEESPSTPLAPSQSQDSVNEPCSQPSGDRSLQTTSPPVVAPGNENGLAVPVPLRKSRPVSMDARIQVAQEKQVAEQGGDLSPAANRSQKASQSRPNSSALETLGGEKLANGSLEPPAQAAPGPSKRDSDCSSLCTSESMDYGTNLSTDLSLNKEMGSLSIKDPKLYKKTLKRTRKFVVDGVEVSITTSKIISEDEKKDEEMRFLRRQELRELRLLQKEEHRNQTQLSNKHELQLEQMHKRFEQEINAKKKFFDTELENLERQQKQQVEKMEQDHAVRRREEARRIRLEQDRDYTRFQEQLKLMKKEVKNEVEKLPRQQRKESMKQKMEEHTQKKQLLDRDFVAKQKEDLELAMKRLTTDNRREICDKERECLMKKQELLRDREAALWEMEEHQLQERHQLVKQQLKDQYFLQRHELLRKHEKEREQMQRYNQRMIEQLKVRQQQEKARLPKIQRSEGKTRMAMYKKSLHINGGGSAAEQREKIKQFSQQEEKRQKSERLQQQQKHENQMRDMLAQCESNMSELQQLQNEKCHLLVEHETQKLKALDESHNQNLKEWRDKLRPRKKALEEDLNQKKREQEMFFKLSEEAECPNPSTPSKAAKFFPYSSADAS
Sequence of Membrane-associated progesterone receptor component 1 (O00264 whole entry): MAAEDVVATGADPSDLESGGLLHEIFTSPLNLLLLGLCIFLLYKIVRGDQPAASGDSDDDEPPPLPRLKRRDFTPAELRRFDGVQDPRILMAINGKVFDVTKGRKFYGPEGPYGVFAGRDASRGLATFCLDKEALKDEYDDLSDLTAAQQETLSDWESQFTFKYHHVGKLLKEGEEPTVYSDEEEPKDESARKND
Sequence of Cyclin-dependent kinase 5 (Q00535 whole entry): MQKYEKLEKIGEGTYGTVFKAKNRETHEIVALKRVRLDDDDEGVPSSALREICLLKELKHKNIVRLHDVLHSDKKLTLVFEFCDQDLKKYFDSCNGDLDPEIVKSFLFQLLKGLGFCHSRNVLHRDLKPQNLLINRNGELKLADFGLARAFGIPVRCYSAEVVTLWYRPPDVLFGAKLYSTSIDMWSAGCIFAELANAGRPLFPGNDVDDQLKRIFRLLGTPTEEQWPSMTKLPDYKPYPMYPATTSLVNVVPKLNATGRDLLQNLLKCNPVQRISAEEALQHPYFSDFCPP

O=C(Cc1ccc(-c2ccc(OCCN3CCOCC3)cc2)cn1)NCc1ccccc1 [TIRBANIBULIN]
inactive: [1] > 30 µM | [2] > 30 µM | [3] > 30 µM | [4] > 30 µM | [5] > 30 µM | [6] > 30 µM | [7] > 30 µM | [8] > 30 µM

O=C1NC(=O)[C@@H](c2cn3c4c(cccc24)CCC3)[C@@H]1c1c[nH]c2ccccc12 [TIVANTINIB]
inactive: [1] > 30 µM | [2] > 30 µM | [3] > 30 µM | [4] > 30 µM | [5] > 30 µM | [6] > 30 µM | [7] > 30 µM | [8] > 30 µM

C[C@@H](NC(=O)c1ncnc(N)c1Cl)c1ncc(C(=O)Nc2cc(C(F)(F)F)c(Cl)cn2)s1 [TOVORAFENIB]
inactive: [1] > 30 µM | [2] > 30 µM | [3] > 30 µM | [4] > 30 µM | [5] > 30 µM | [6] > 30 µM | [7] > 30 µM | [8] > 30 µM

Cn1ncc(Cl)c1-c1cc(C(=O)N[C@H](CN)Cc2ccc(F)c(F)c2)oc1Cl [UPROSERTIB]
inactive: [1] > 30 µM | [2] > 30 µM | [3] > 30 µM | [4] > 30 µM | [5] > 30 µM | [6] > 30 µM | [7] > 30 µM | [8] > 30 µM
